# Measured values from a melting point compilation (Tetko et al.; mined from patent text by program, amines drawn as free bases though some values may be those of a salt).
row,melting point,SMILES
1,142 to 144 °C,C[C@@H]1C[C@H](C)CN(C(=O)[C@@H]2Cc3cc(Br)ccc3N2c2ncccn2)C1
2,141 to 142 °C,CCn1c(C)nc2cc(C(F)(F)F)c(N(C)C)c(N)c21
3,195 to 197 °C,N#Cc1nc(N)c2ncn(C3OC(CO)C(O)C3O)c2n1 (stereo not given)
4,180 °C,NNC(=O)C[C@H](O)c1ccccc1
5,71 to 72 °C,CN1CCCC1=C(C#N)c1ccc(Cl)cc1
6,> 250 °C,CC(C)NC(=O)c1nc(-c2ccccc2)c(-c2ccc(=O)[nH]n2)s1
7,156 to 158 °C,CN1CC(=O)N(c2ccc(C(C)(C)C)cc2)C1=S
8,191 to 194 °C,N#Cc1[nH]c(Br)c(-c2ccc(Cl)cc2)c1Br
9,168 to 169 °C,CCn1ncc2c1ncc1c(SC)nc3cc(C)nn3c12
10,83 to 84 °C,C=C(C(=O)c1cc(C)cc(C)c1O)c1ccccc1
11,112 to 113 °C,CC(=O)Nc1ccc(OC(F)F)c(F)c1
12,68 to 72 °C,CCSC1(c2cc(F)cc(OCc3ccc4c(ccc(=O)n4C)c3)c2)CCOCC1
13,147 to 150 °C,CCCCOc1cc2c(cc1OC)C(c1ccc(OC)c(OC)c1)=NN=C(C)C2CC (stereo not given)
14,> 280 °C,CCn1c(=O)c2[nH]c(/C=C/c3cc(C)c(OC)cc3C)nc2n(CC)c1=O
15,135 to 139 °C,COc1cc(OC)nc(Oc2ccc3[nH]c(C)cc3c2C(=O)OCc2ccccc2)n1
16,154 to 156 °C,CC(=O)C1=CCC2C3CCC4CC5OC5CC4(C)C3C(=O)CC12C (stereo not given)
17,125 to 127 °C,CCOC(=O)c1cn(CC2CC2)c2cc(-n3cccc3)c(F)cc2c1=O
18,119 to 122 °C,O=C1O[C@@H](CO)CN1c1ccc(C2=CCSCC2)c(F)c1
19,140 to 141 °C,O=C(O)c1c(F)cc(F)c(F)c1NCc1ccccc1
20,75.5 to 76 °C,C[Si](C)(C)C#Cc1cnc(C(F)(F)F)nc1

row,melting point,SMILES
1,56 °C,CCOC(=O)C(Cc1ccc(CN(CC)CC)cc1)NC(=O)OC(C)(C)C (stereo not given)
2,121 to 123 °C,COC(=O)N(CO)c1ccc(OCc2nc3ccccc3s2)cc1C
3,210 to 212 °C,Cc1c(C)c2c(c(C)c1NC(=O)CC(C)(C)C)C(c1ccccn1)C(C)(C)O2 (stereo not given)
4,183 °C,CC(=O)N[C@H]1CC[C@H](CCN2CCC(c3cccc4c3CCO4)CC2)CC1
5,112 to 114 °C,CC(=O)OC(Cn1cncn1)(CC(Cl)(Cl)Cl)c1ccc(Cl)cc1 (stereo not given)
6,137 to 138 °C,CCCOc1cc(-c2ccc3cc4c(cc3c2)C(C)(C)CCC4(C)C)ccc1C(=O)O
7,102 °C,CCOC(=O)C1C(C)=NC(N2CCCC2)=C(C(=O)OC(C)C)C1c1ccccc1C(F)(F)F (stereo not given)
8,57 to 62 °C,O=C(N[C@@H](CO)C(=O)NCCCOC1CCCCC1)c1ccc(C(=O)c2cccnc2)cc1
9,134 °C,CC(C)(C)OC(=O)N1C(=O)C(Br)=C(c2cn(C(=O)OC(C)(C)C)c3ccc(OCc4ccccc4)cc23)C1=O
10,205 to 206 °C,N#Cc1cn2c(nc1=O)CCCCC2
11,103 to 105 °C,CCN(CC)c1ccc(C(C)=O)cc1S(N)(=O)=O
12,160 °C,CCOC(=O)c1cccc(NC(=O)N2CCC(CNC[C@H](O)COc3cccc4[nH]c5ccccc5c34)CC2)c1
13,318 °C,O=S(=O)(O)OC[C@H]1Cc2ccccc2CN1
14,106 to 107 °C,O=C(O)[C@@H]1C[C@@H](O)CN1C(=O)OCc1ccccc1
15,154 to 156 °C,O=C(O)C(=O)CC(=O)c1cccn1Cc1cccc(F)c1F
16,214 to 217 °C,C[C@]1(COc2ccc(N3CCC(OCC=Cc4ccc(OC(F)(F)F)cc4)CC3)cc2)Cn2cc([N+](=O)[O-])nc2O1
17,136 to 137 °C,CC1(CC(O)(Cc2ccc(Cl)cc2Cl)c2cccnc2)OCCO1 (stereo not given)
18,130 to 132 °C,O=S(=O)(C1CC1)C(F)(F)C(O)(Cn1cncn1)c1ccc(F)cc1F (stereo not given)
19,217 to 220 °C,CCCCc1ncc(/C=C(\Cc2cccs2)C(=O)O)n1Cc1ccc(C(=O)OC)cc1
20,172 to 173 °C,COc1cccc([C@H]2O[C@H](CC(=O)Nc3cccc(CCC(=O)O)c3)C(=O)N(CC(C)(C)C)c3ccc(Cl)cc32)c1OC
